In brackets after ≈: the same amount, converted by molar mass.

For data set [1], the system named is carrageenan-induced rat paw edema. More on the design: method as in doi:10.1055/s-2006-961309. The conditions noted are these: compound D from a hexane extract of Z. cassumunar; cited from earlier work.
Data set [2] concerns uterus of non-pregnant rat. The arrangement: method as in PMID 3671553. The conditions noted are these: cited from earlier work.
Data set [3] can be described thus: Transport across Caco-2 cell monolayers, apical to basolateral. It counts as in vitro ADME, human. The note with it: human, Caco-2, pH 7.4; for Papp at 100 min, 53 μM: read-out: apparent permeability coefficient Papp at 53 μM; for Papp at 100 min, 106 μM: read-out: apparent permeability coefficient Papp at 106 μM. The procedure: (§1) Caco-2 cells were maintained in a DMEM at pH7.4, supplemented with 10% fetal bovine serum, 2 mM L-glutamine, 1% non-essential amino acid solution and 0.1% penicillin-streptomycin solution in a humidified atmosphere (5% CO2, 95% air, at 37°C). Cells were grown until 60-70% confluence. Cells from passages 20-40 were used for all experiments. Cells were seeded on tissue culture polycarbonate membrane filters (pore size: 3.0 μm) in 6-well Transwell plates (Corning, USA) at a seeding density of 2 × 10^4cells/cm^2. Culture medium was added to both the donor and the acceptor compartments. Medium was changed every two days. Cells were left to differentiate for 15-21 days after seeding with monitoring of trans-epithelial electrical resistance (TEER) values with a Millicell electrical resistance system (Millipore, USA) and the value should be higher than 600Ω.cm^2.
(§2) Transport experiment across the Caco-2 cell monolayers at pH7.4 was performed. Caco-2 cell monolayers in Transwell (6-well) plates were used for transport studies when they were differentiated and the monolayer was intact, as checked by measuring TEER. Prior to the experiment, the cells were washed twice with phosphate buffered saline (PBS) and pre-equilibrated for one hour with HBSS buffered with 30 mM n-(2-hydroxyethyl) piperazine-n-(2-ethanosulfonic acid) (HEPES) at pH7.4. After medium was removed, the cells were treated with sample solutions (concentrations of 53 μM and 106 μM in HBSS at pH7.4) in an apical compartment. Samples (1 mL) were taken under sink conditions at 0, 5, 20, 40, 60, 80 and 100 minutes from the basolateral side and replaced with an equal volume of fresh HBSS solution. The amount of the compounds from the basolateral side was determined on a UV-spectrophotometer (Thermo Scientific, USA) at 228 nm. Results were expressed as cumulative transport as a function of time. Apparent permeability coefficient was calculated according to the following equation: […]
(§3) where Papp is the apparent permeability coefficient (cm/s), dQ/dt (μg/s) is the rate of appearance of sample on the basolateral side, A is the surface area of the monolayer (cm^2) and C0 (μg/mL) is the initial drug concentration in the donor compartment. All rate constants were obtained from the permeation profiles of each compound. Statistical significance was evaluated with one-way analysis of variance (one-way ANOVA). A value of P < 0.05 was considered statistically significant.
(In general: Caco-2 cells form a polarised layer with tight junctions and transporters.)

For another data set, the system named is Caco-2 cell monolayers. The data set is described as above. The format is in vitro ADME, human. The conditions noted are these: for Papp at 53 μM / Papp at 106 μM: apical to basolateral, pH7.4, mean (SD), n = 3. Here is the method:
as §1, §2, §3

Data set [4] is described as follows: Chemical hydrolysis in transport medium (HBSS). It counts as physicochemical. The conditions noted are these: 53 μM and 106 μM in transport medium (HBSS pH7.4), stored at 4°C for 96 hours. Here is the method: Solution of compound 1, 2 and 3 at 53 μM and 106 μM were prepared in Hank's balanced salt solution (HBSS) at pH7.4. All solutions were kept at 4°C for 96 hours and each solution was then analyzed by HPLC at 12, 24, 48, 72 and 96 hours to determine the hydrolysis product.

The subject of data set [5] is Mycobacterium tuberculosis H37Ra. The arrangement: method as in PMID 17691048. The conditions noted are these: cited from earlier work.
The subject of a further data set is porcine liver esterase. In words: Enzyme hydrolysis by porcine liver esterase, monitored by HPLC. The format is in vitro ADME. The conditions noted are these: 10 μM, 37°C. Here is the method:
Compound 1 (2 mL, 10 μM solution) was pre-incubated at 37°C and 200 μL of esterase enzyme (porcrine liver, 750 units) was added. Samples (200 μL each) were taken at 5, 10, 20, 30 and 60 minutes and added to 200 μL of methanol. Mixtures were vortexed to stop enzymatic activity. Samples were then centrifuged for five minutes at 14,000 × g (Lab Essentials, USA). Supernatant was injected to the HPLC system for the determination of ester pro-drugs and compound D. This procedure was repeated for compounds 2 and 3.

Details of data set [6]: method as in PMID 17691048. The note with it: human vero cell line, cited from earlier work.
Data set [7] has as its system herpes simplex virus (HSV-1). The arrangement: method as in PMID 17691048. The note with it: vero cell line; cited from earlier work.
The mark [8] stands for this setting: apical to basolateral direction.

Turning to `COc1ccc(/C=C/CCO)cc1OC` [Compound D, (E)-4-(3,4-dimethoxyphenyl)but-3-en-1-ol], the “effect on edema formation” value in data set [1] was “potent inhibitory effect on edema formation”. In data set [2], the uterine relaxant effect entry is listed as “dose dependent uterine relaxant effect”. Also, in [3], the Papp at 100 min, 53 μM is 8.53 ×10⁻⁶ cm/s and the Papp at 100 min, 106 μM came out at 16.4 ×10⁻⁶ cm/s. Moreover, in the data set on Caco-2 cell monolayers (53 μM), the “Papp at 53 μM” value was 8.53 (0.83)** 10^-6cm/s. The “cumulative transport at 106 μM” value with Caco-2 cell monolayers (setting [8]) is “cumulative transport close to compound 3”. Besides, in the data set on Caco-2 cell monolayers, the “Papp at 106 μM” value is 16.38 (0.61)** 10^-6cm/s.

Take `CCCCC/C=C\C/C=C\CCCCCCCC(=O)OCC/C=C/c1ccc(OC)c(OC)c1` [Compound 1, (E)-4-(3,4-dimethoxyphenyl)but-3-en-1-yl linoleate]: the “time after which hydrolysis product compound D was detected by HPLC” value (shortened to “time … by HPLC”) in [4] stood at 24 h. In addition, the Minimal inhibitory concentration in [5] was 200 µg/mL (≈ 425 µM). For the same compound, in data set [3], the Papp at 100 min, 53 μM came out at 13.9 ×10⁻⁶ cm/s and the Papp at 100 min, 106 μM worked out at 14.3 ×10⁻⁶ cm/s. Besides, in the data set on Caco-2 cell monolayers, the “hydrolysis during the transport across Caco-2 cell monolayers” value is listed as “did not occur” and the “Papp at 106 μM” value is listed as 14.33 (0.17) 10^-6cm/s. For the same compound, the “cumulative transport at 53 μM” value with Caco-2 cell monolayers (53 μM, apical to basolateral direction) was “highest cumulative transport”. Moreover, the “Papp at 53 μM” value in the data set with Caco-2 cell monolayers (53 μM) was 13.94 (0.60) 10^-6cm/s. Further, the “cumulative transport at 106 μM” value in the data set with Caco-2 cell monolayers (setting [8]) is “higher cumulative transport over other two fatty acid ester”. The “time in which the ester hydrolysis was completed” value in the data set with porcine liver esterase is at most 10 min.

Consider `CCCCCCCC/C=C\CCCCCCCC(=O)OCC/C=C/c1ccc(OC)c(OC)c1` [Compound 2, (E)-4-(3,4-dimethoxyphenyl)but-3-en-1-yl oleate], for which the “time … by HPLC” value in [4] was 24 h. The Minimal inhibitory concentration in data set [5] was 100 µg/mL (≈ 212 µM). For the same compound, the “cytotoxicity” value in data set [6] (at anti-HSV-1 IC50) was “without cytotoxicity”. Moreover, in data set [3], the Papp at 100 min, 53 μM worked out at 9.45 ×10⁻⁶ cm/s and the Papp at 100 min, 106 μM stood at 10.1 ×10⁻⁶ cm/s. In the data set on Caco-2 cell monolayers, the “hydrolysis during the transport across Caco-2 cell monolayers” value is “did not occur” and the “Papp at 106 μM” value is 10.08 (0.32) 10^-6cm/s. In addition, the “Papp at 53 μM” value with Caco-2 cell monolayers (53 μM) was 9.45 (0.29) 10^-6cm/s. Also, the “anti-HSV-1 IC50” value in data set [7] was 42.6 µg/mL. Also, the “time in which the ester hydrolysis was completed” value with porcine liver esterase is at most 10 min.

In the case of `CCCCCCCCCCCCCCCC(=O)OCC/C=C/c1ccc(OC)c(OC)c1` [Compound 3, (E)-4-(3,4-dimethoxyphenyl)but-3-en-1-yl palmitate], the “time … by HPLC” value in [4] was 24 h. For the same compound, the Minimal inhibitory concentration in data set [5] was 200 µg/mL (≈ 448 µM). Also, the “cytotoxicity IC50” value in data set [6] is 38 µg/mL. For the same compound, in data set [3], the Papp at 100 min, 53 μM was determined as 7.48 ×10⁻⁶ cm/s and the Papp at 100 min, 106 μM is 8.6 ×10⁻⁶ cm/s. In the data set with Caco-2 cell monolayers, the “hydrolysis during the transport across Caco-2 cell monolayers” value is “did not occur” and the “Papp at 106 μM” value is 8.60 (0.55)** 10^-6cm/s. Besides, the “Papp at 53 μM” value in the data set with Caco-2 cell monolayers (53 μM) is 7.48 (0.31)** 10^-6cm/s. Moreover, the “time in which the ester hydrolysis was completed” value in the data set on porcine liver esterase is at most 10 min.

The values above are taken from PMC2759945, “Cellular transport of anti-inflammatory pro-drugs originated from a herbal formulation of Zingiber cassumunar and Nigella sativa” (Chinese Medicine, 2009).
